Laboratory results published in the supplement of paper PMC11208160.

Experiment: recombinant barcode read abundance after kanamycin selection (control-corrected) (log10(CPM+1)); higher = more efficient recombination; sequences stand for … in AGTGCAGAGAAAATCGGCCAGTTTTCTCTGCCTGCAGTCCGCATGCCGT…AGATTTATGCAGCGGACTGCCTTTCTCCCAAAGTGATAAACCGGACAGTATCATGGACCGGTTTTCCCGGTAATCCGTATTTGCAAGGTTGGTTTCACT; site = the 11-nt target
In short: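 In a pooled screen in E. coli, targets were paired with target-binding loops of the IS621 bridge RNA. Each oligo carried a promoter, a target, a barcode and the first 104 bridge RNA bases driven by J23119, and was Gibson-cloned into a vector holding the remaining 73 bp and a T7-inducible recombinase before co-electroporation with a donor plasmid. Duplicate platings went onto chloramphenicol/ampicillin LB agar as the control or onto chloramphenicol/ampicillin/kanamycin with 0.1 mM IPTG. Recombination efficiency is the averaged, control-corrected count per million of barcodes at recombinant junctions, given as log10(CPM+1).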
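Note: IS621 recombinase and bridge RNA in Escherichia coli cells.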

Sequence | recombinant barcode read abundance (log10)
CGTCACCCTTGGGTTCTAACCTGTTGCCT (site CGTCAGCCTAG) | 0.12
CGTCACCCTTGGGTTCTAACCTGTTGCCT (site CGTCATCCTAG) | 0.126
CGTCAGACTTGGGTTCTAACCTGTTGCCT (site CGTAAGACTAG) | 0
CGTCAGACTTGGGTTCTAACCTGTTGCCT (site CGTCAGACTAG) | 0.109
CGTCAGACTTGGGTTCTAACCTGTTGCCT (site CGTGAGACTAG) | 0.212
CGTCAGACTTGGGTTCTAACCTGTTGCCT (site CGTTAGACTAG) | 0
CGTCTACCTTGGGTTCTAACCTGTTGCTT (site AGTCTACCTAA) | 0.297
CGTCTACCTTGGGTTCTAACCTGTTGCTT (site CGTCTACCTAA) | 0.242
CGTCTCCCTTGGGTTCTAACCTGTTGCTT (site CGTATCCCTCA) | 0.108
CGTCTCCCTTGGGTTCTAACCTGTTGCTT (site CGTCTCCCTAA) | 0.162
CGTGAACCTTGGGTTCTAACCTGTTGCGT (site CGTAAACCTAC) | 2.19
CGTGAACCTTGGGTTCTAACCTGTTGCGT (site CGTCAACCTAC) | 0.34
CGTGAACCTTGGGTTCTAACCTGTTGCGT (site CGTGAACCTAC) | 2.79
CGTGAACCTTGGGTTCTAACCTGTTGCGT (site CGTTAACCTAC) | 0.751
CGTGCGGCTTGGGTTCTAACCTGTTGCCT (site AGTGCGGCTAG) | 0.0463
CGTGCGGCTTGGGTTCTAACCTGTTGCCT (site CGTGCGGCTAG) | 0.486
CGTGCGGCTTGGGTTCTAACCTGTTGCCT (site GGTGCGGCTAG) | 0.946
CGTGCGGCTTGGGTTCTAACCTGTTGCCT (site TGTGCGGCTAG) | 0.0337
CGTGCGTCTTGGGTTCTAACCTGTTGCCT (site AGTGCGTCTAG) | 0.208
CGTGCGTCTTGGGTTCTAACCTGTTGCCT (site CGTGCGTCTAG) | 0.918
CGTGCGTCTTGGGTTCTAACCTGTTGCCT (site GGTGCGTCTAG) | 0.38
CGTGCGTCTTGGGTTCTAACCTGTTGCCT (site TGTGCGTCTAG) | 0.0337
CGTGGGCCTTGGGTTCTAACCTGTTGCCT (site CATGGGCCTAG) | 0.295
CGTGGGCCTTGGGTTCTAACCTGTTGCCT (site CCTGGGCCTAG) | 0.208
CGTGGGCCTTGGGTTCTAACCTGTTGCCT (site CGTGGGCCTAG) | 0.0583
CGTGGGCCTTGGGTTCTAACCTGTTGCCT (site CTTGGGCCTAG) | 0.0694

Sequence | recombinant barcode read abundance (log10)
CGTGGTCCTTGGGTTCTAACCTGTTGCCT (site CGTGGTCCTAA) | 0.0142
CGTGGTCCTTGGGTTCTAACCTGTTGCCT (site CGTGGTCCTAC) | 0.413
CGTGGTCCTTGGGTTCTAACCTGTTGCCT (site CGTGGTCCTAG) | 1.26
CGTGGTCCTTGGGTTCTAACCTGTTGCCT (site CGTGGTCCTAT) | 0.657
CGTTAACCTTGGGTTCTAACCTGTTGCGT (site CGTAAACCTAC) | 0.423
CGTTAACCTTGGGTTCTAACCTGTTGCGT (site CGTCAACCTAC) | 1.48
CGTTAACCTTGGGTTCTAACCTGTTGCGT (site CGTGAACCTAC) | 0.177
CGTTAACCTTGGGTTCTAACCTGTTGCGT (site CGTTAACCTAC) | 1.37
CGTTAGACTTGGGTTCTAACCTGTTGCCT (site CGTAAGACTAG) | 0.113
CGTTAGACTTGGGTTCTAACCTGTTGCCT (site CGTCAGACTAG) | 0.267
CGTTAGACTTGGGTTCTAACCTGTTGCCT (site CGTGAGACTAG) | 0.147
CGTTAGACTTGGGTTCTAACCTGTTGCCT (site CGTTAGACTAG) | 0.469
CGTTCAACTTGGGTTCTAACCTGTTGCCT (site CGTTCAACTAG) | 0.0537
CGTTCAACTTGGGTTCTAACCTGTTGCCT (site CGTTCCACTAG) | 0.0618
CGTTCAACTTGGGTTCTAACCTGTTGCCT (site CGTTCGACTAG) | 0.153
CGTTCAACTTGGGTTCTAACCTGTTGCCT (site CGTTCTACTAG) | 0.0864
CGTTCATCTTGGGTTCTAACCTGTTGCCT (site CGATCATCTAG) | 0
CGTTCATCTTGGGTTCTAACCTGTTGCCT (site CGCTCATCTAG) | 0.0301
CGTTCATCTTGGGTTCTAACCTGTTGCCT (site CGGTCATCTAG) | 0.0446
CGTTCATCTTGGGTTCTAACCTGTTGCCT (site CGTTCATCTAG) | 0.0763
CGTTCTACTTGGGTTCTAACCTGTTGCCT (site CGTTCAACTAG) | 0.0719
CGTTCTACTTGGGTTCTAACCTGTTGCCT (site CGTTCCACTAG) | 0.286
CGTTCTACTTGGGTTCTAACCTGTTGCCT (site CGTTCGACTAG) | 0.0414
CGTTCTACTTGGGTTCTAACCTGTTGCCT (site CGTTCTACTAG) | 0.00743
CGTTGATCTTGGGTTCTAACCTGTTGCCT (site CGTTGATCTAG) | 0.234
CGTTGATCTTGGGTTCTAACCTGTTGCCT (site CGTTGTTCTAG) | 0.0674

Sequence | recombinant barcode read abundance (log10)
CGTTGTCCTTGGGTTCTAACCTGTTGCAA (site CCTTGTCCTCT) | 0.00991
CGTTGTCCTTGGGTTCTAACCTGTTGCAA (site CGTTGTCCTTT) | 0.347
CGTTGTTCTTGGGTTCTAACCTGTTGCCT (site CGTTGATCTAG) | 0.0873
CGTTGTTCTTGGGTTCTAACCTGTTGCCT (site CGTTGTTCTAG) | 0.163
CTAAAAGCTTGGGTTCTAACCTGTTGCCA (site CTAAAAGCTTG) | 0.493
CTAAAAGCTTGGGTTCTAACCTGTTGCCA (site TACTCCTCTCC) | 0.0219
CTAAAGTCTTGGGTTCTAACCTGTTGCAC (site CTAAAGTCTGG) | 0.0578
CTAAAGTCTTGGGTTCTAACCTGTTGCAC (site CTAAAGTCTGT) | 1.51
CTAAAGTCTTGGGTTCTAACCTGTTGCCC (site CTAAAGTCTGG) | 0.4
CTAAAGTCTTGGGTTCTAACCTGTTGCCC (site CTAAAGTCTGT) | 0.136
CTAAATACTTGGGTTCTAACCTGTTGCTT (site CTAAATACTAA) | 0.383
CTAAATACTTGGGTTCTAACCTGTTGCTT (site CTATATACTAA) | 0.107
CTAACCTCTTGGGTTCTAACCTGTTGCAT (site CTAACCTCTAT) | 2.1
CTAACCTCTTGGGTTCTAACCTGTTGCAT (site CTACCCTCTAT) | 0.0596
CTAACCTCTTGGGTTCTAACCTGTTGCAT (site CTAGCCTCTAT) | 0.151
CTAACCTCTTGGGTTCTAACCTGTTGCAT (site CTATCCTCTAT) | 0.0287
CTAACTACTTGGGTTCTAACCTGTTGCTT (site AGTTGGCCTCT) | 0.41
CTAACTACTTGGGTTCTAACCTGTTGCTT (site CTAACTACTAA) | 0.252
CTAACTCCTTGGGTTCTAACCTGTTGCCT (site ATACCTCCTAG) | 0.242
CTAACTCCTTGGGTTCTAACCTGTTGCCT (site CTAACTCCTAG) | 0.401
CTAACTCCTTGGGTTCTAACCTGTTGCTG (site CTAACTCCTCA) | 0.12
CTAACTCCTTGGGTTCTAACCTGTTGCTG (site CTAACTGCTCC) | 0.524
CTAACTGCTTGGGTTCTAACCTGTTGCGG (site CTAACTCCTCA) | 0.0417
CTAACTGCTTGGGTTCTAACCTGTTGCGG (site CTAACTGCTCC) | 0.633
CTAACTGCTTGGGTTCTAACCTGTTGCGT (site CTAACTGCTAC) | 0.96
